Data set [1] in a line: Accelerated storage stability of cefdinir, Aluminum pouch, 40 ± 2° C., Rh 75 ± 5%. The format is physicochemical.
A short description of data set [2]: Dissolution rate in 0.07 N Hydrochloric acid. In kind it is physicochemical.
For data set [3] the following is noted: accelerated stability tests; cited from earlier work.
The conditions of data set [4]: 0.07 N Hydrochloric acid, cited from earlier work.
The mark [5] stands for this setting: After 30 days at 40 ± 2° C., Rh 75 ± 5%.
Where [6] appears, read: After 60 days at 40 ± 2° C., Rh 75 ± 5%.
The mark [7] stands for this setting: After 180 days at 40 ± 2° C., Rh 75 ± 5%.

For `C=CC1=C(C(=O)O)N2C(=O)[C@@H](NC(=O)/C(=N\O)c3csc(N)n3)[C@H]2SC1` [(Z)-7-[2-(2-amino-4-thiazolyl)-2-hydroxyiminoacetamido]-3-vinyl-3-cephem-4-carboxylic acid], the thermal stability entry in data set [1] (40° C. (75% Rh)) is recorded as “excellent thermal stability”. Besides, the “Assay by HPLC (% on Dry Basis)” value in data set [1] (setting [5]) came out at 97.92 % on Dry Basis; in data set [1] (setting [6]), 97.38 % on Dry Basis; in data set [1] (setting [7]), 96.65 % on Dry Basis; in data set [1] (Initial) it was 98.37 % on Dry Basis. For the same compound, the “Water Content (%)” value was 7.46% in data set [1] (setting [5]), 7.27% in data set [1] (setting [6]), 7.60% in data set [1] (setting [7]) and 7.05% in data set [1] (Initial). The “pH (1% Aqueous suspension)” value in data set [1] (setting [5]) stood at 3.46; in data set [1] (setting [6]) it was 3.45; in data set [1] (setting [7]), 3.55; in data set [1] (Initial) it was 3.40. Besides, the “IDR: Intrinsic Dissolution Rate” value in data set [2] was 0.1831 mg/cm^2/min. The “dissolution rate compared with reference “Crystal A” and material of U.S. Application No. 2003/0204082 A” value in data set [2] was “superior”. The “Dissolution Profile” value in data set [2] (15 Mins) was 4.15 mg/cm^2; in data set [2] (30 Mins), 8.26 mg/cm^2; in data set [2] (45 Mins), 10.31 mg/cm^2; in data set [2] (60 Mins), 14.66 mg/cm^2; in data set [2] (75 Mins), 16.29 mg/cm^2; in data set [2] (90 Mins), 19.47 mg/cm^2. In addition, the “Dissolution Profile” value in data set [2] (105 Mins) amounted to 22.17 mg/cm^2; in data set [2] (120 Mins) it was 23.01 mg/cm^2.

As for `C=CC1=C(C(=O)O)N2C(=O)[C@@H](NC(=O)/C(=N\O)c3csc(N)n3)[C@H]2SC1` [Cefdinir Prepared as per the Method of Dobfar's US Applicati] [reference compound], the “stability compared with reference “Crystal A”” value in data set [3] is “at least equal to that of the reference “Crystal A””. Besides, in data set [4] (after the first hour), the “solubility compared with reference “Crystal A”” value is “more soluble”. Also, the “dissolution rate compared with reference “Crystal A”” value in data set [4] (initially) is given as “initially slower”. Also, the “IDR: Intrinsic Dissolution Rate” value in data set [2] came to 0.1392 mg/cm^2/min. Moreover, the “Dissolution Profile” value in data set [2] (15 Mins) is on record as 4.59 mg/cm^2; in data set [2] (30 Mins), 6.01 mg/cm^2; in data set [2] (45 Mins), 8.70 mg/cm^2; in data set [2] (60 Mins) it was 10.42 mg/cm^2; in data set [2] (75 Mins), 12.23 mg/cm^2; in data set [2] (90 Mins), 14.94 mg/cm^2. The results for the “Dissolution Profile” value in data set [2] (105 Mins) and in data set [2] (120 Mins) were 16.79 mg/cm^2 and 19.02 mg/cm^2, respectively.

The record behind these values is patent US20050245738A1, “Stable bioavailable crystalline form or cefdinir and a process for the preparation thereof” (LUPIN LTD, priority 2004, published 2005).
